In publication PMC11990924, “Inhibition of Tyrosinase and Melanogenesis by Carboxylic Acids: Mechanistic Insights and Safety Evaluation” (Molecules, 2025):

Test system: B16-F10 cells
Test: Proteomic analysis of B16-F10 cells (DIA mass spectrometry)
Assay type: cell-based, mouse
Experimental: B16-F10 cells were treated with various concentrations of carboxylic acids following the same culture protocol used for melanin inhibition assays. After treatment, the cells were collected and submitted to Shanghai Zhongke Xinming Biotechnology Co., Ltd. (Shanghai, China) for proteomics analysis. The collected cells were lysed with an appropriate volume of SDT lysis buffer (4% SDS, 100 mM Tris-HCl, pH 7.6) to extract proteins. DTT was added to reduce disulfide bonds, followed by incubation at room temperature for 1 h. Subsequently, iodoacetamide was added, and the mixture was reacted in the dark at room temperature for 30 min. The proteins were then digested with trypsin overnight. The resulting peptide fragments were desalted using a C18 cartridge. After freeze-drying, the peptides were resuspended in 40 μL of 0.1% formic acid solution, and the peptide concentration was determined by measuring the absorbance at 280 nm. An appropriate amount of internal reference for targeted proteomics (iRT) standard peptides was added to each sample for data-independent acquisition (DIA) mass spectrometry analysis. Chromatographic separation was performed using a nanoflow Evosep One system. The separated samples were analyzed by DIA mass spectrometry using a timsTOF Pro mass spectrometer (Bruker Daltonics, Bremen, Germany). Detection was conducted in positive-ion mode, with MS and MS/MS scanning ranges set from 100 to 1700 m/z. MS2 data acquisition was performed in DIA mode, with four TIMS scan windows, each accumulating for 100 ms. In PASEF mode, the collision energy varied linearly with ion mobility (1/K0), ranging from 20 to 59 eV for ions with 1/K0 values between 0.85 and 1.30 Vs/cm^2. The DIA data were processed using Spectronaut 19 software with the following parameter settings: retention time prediction type set to dynamic iRT, interference correction on MS2 level enabled, cross-run normalization enabled, maximum missed cleavage sites set to 2, fixed modification set to Carbamidomethyl (C), and variable modifications set to Oxidation (M) and Acetyl (Protein N-term). All results were filtered with a Q-value cutoff of 0.01, corresponding to a false discovery rate (FDR) of less than 1%. The target protein set was annotated using Blast2GO (version BLASTP 2.8.0+). The process included four steps: sequence alignment (Blast), GO mapping, GO annotation, and additional annotation augmentation using InterProScan. Using the KOBAS 3.0 software, KEGG pathway annotation was performed on the target protein set. Fisher’s exact test was employed to compare the distribution of GO categories in the target protein set and the overall protein set, thereby conducting enrichment analysis of the GO annotations in the target protein set. The proteomics dataset generated in this study has been made publicly available through the PRIDE ProteomeXchange Consortium with the dataset identifier PXD061919.

SMILES: O=C(O)C(O)Cc1ccccc1 (stereo not shown) [3-phenyllactic acid]
- ATP8 protein fold change (6 mM vs control, Table S1): 0.4618
- Aanat protein fold change (6 mM vs control, Table S1): 2.208
- Acta1 protein fold change (6 mM vs control, Table S1): 2.921
- Adgrg1 protein fold change (6 mM vs control, Table S1): 0.4728
- Agtrap protein fold change (6 mM vs control, Table S1): 0.4687
- Antxr2 protein fold change (6 mM vs control, Table S1): 0.4747
- Aplp2 protein fold change (6 mM vs control, Table S1): 0.2246
- Apob protein fold change (6 mM vs control, Table S1): 0.4962
- Apoh protein fold change (6 mM vs control, Table S1): 0.4857
- App protein fold change (6 mM vs control, Table S1): 0.3729
- Arl6ip1 protein fold change (6 mM vs control, Table S1): 0.4901
- Bace2 protein fold change (6 mM vs control, Table S1): 0.4069
- Bcl9 protein fold change (6 mM vs control, Table S1): 2.336
- Bltp1 protein fold change (6 mM vs control, Table S1): 2.099
- Bst2 protein fold change (6 mM vs control, Table S1): 0.3949
- CUB domain-containing protein (Q3TD85) fold change (6 mM vs control, Table S1): 0.4924
- Cav2 protein fold change (6 mM vs control, Table S1): 0.4909
- Cdc42se1 protein fold change (6 mM vs control, Table S1): 0.3683
- Cisd2 protein fold change (6 mM vs control, Table S1): 0.4369
- Cks2 protein fold change (6 mM vs control, Table S1): 0.4644
- Ctns protein fold change (6 mM vs control, Table S1): 0.3087
- Cxne protein fold change (6 mM vs control, Table S1): 0.3753
- Cyp51a1 protein fold change (6 mM vs control, Table S1): 0.3449
- Ddit3 protein fold change (6 mM vs control, Table S1): 2.105
- Dgcr2 protein fold change (6 mM vs control, Table S1): 0.4147
- Dnajc19 protein fold change (6 mM vs control, Table S1): 0.3587
- E2f5 protein fold change (6 mM vs control, Table S1): 2.473
- Eng protein fold change (6 mM vs control, Table S1): 0.3635
- Entpd7 protein fold change (6 mM vs control, Table S1): 0.3998
- Epb41l4b protein fold change (6 mM vs control, Table S1): 2.181
- Fam174b protein fold change (6 mM vs control, Table S1): 0.4339
- Fau protein fold change (6 mM vs control, Table S1): 4.21
- Fosl2 protein fold change (6 mM vs control, Table S1): 5.488
- Fv4 protein fold change (6 mM vs control, Table S1): 0.4177
- Ginm1 protein fold change (6 mM vs control, Table S1): 0.3741
- Glmp protein fold change (6 mM vs control, Table S1): 0.4495
- H1-0 protein fold change (6 mM vs control, Table S1): 2.057
- H3c14 protein fold change (6 mM vs control, Table S1): 3.134
- Hbbt1 protein fold change (6 mM vs control, Table S1): 0.388
- Hmgcs1 protein fold change (6 mM vs control, Table S1): 0.3916
- Hspa13 protein fold change (6 mM vs control, Table S1): 0.4084
- Ifi205 protein fold change (6 mM vs control, Table S1): 2.571
- Ifitm2 protein fold change (6 mM vs control, Table S1): 0.4697
- Il10rb protein fold change (6 mM vs control, Table S1): 0.3763
- Itih3 protein fold change (6 mM vs control, Table S1): 0.3529
- Itm2b protein fold change (6 mM vs control, Table S1): 0.2428
- Itm2c protein fold change (6 mM vs control, Table S1): 0.3416
- Kbtbd2 protein fold change (6 mM vs control, Table S1): 0.4177
- Kcnj13 protein fold change (6 mM vs control, Table S1): 0.3629
- Laptm4a protein fold change (6 mM vs control, Table S1): 0.2076
- Laptm4b protein fold change (6 mM vs control, Table S1): 0.3669
- Ldha protein fold change (6 mM vs control, Table S1): 2.104
- Ldlr protein fold change (6 mM vs control, Table S1): 0.4018
- Mast4 protein fold change (6 mM vs control, Table S1): 2.12
- Met protein fold change (6 mM vs control, Table S1): 0.4986
- Mfap3 protein fold change (6 mM vs control, Table S1): 0.4088
- Mlana protein fold change (6 mM vs control, Table S1): 0.2524
- Mtfr2 protein fold change (6 mM vs control, Table S1): 0.4374
- Myl6 protein fold change (6 mM vs control, Table S1): 0.4951
- Ndfip1 protein fold change (6 mM vs control, Table S1): 0.3294
- Nfatc2 protein fold change (6 mM vs control, Table S1): 0.2366
- Nrp1 protein fold change (6 mM vs control, Table S1): 0.4865
- Nrp2 protein fold change (6 mM vs control, Table S1): 0.3408
- Pacsin2 protein fold change (6 mM vs control, Table S1): 0.3403
- Phyhd1 protein fold change (6 mM vs control, Table S1): 2.286
- Pmel protein fold change (6 mM vs control, Table S1): 0.4916
- Psap protein fold change (6 mM vs control, Table S1): 0.4703
- Ptprs protein fold change (6 mM vs control, Table S1): 0.4896
- Rad51ap1 protein fold change (6 mM vs control, Table S1): 0.4291
- Rnf220 protein fold change (6 mM vs control, Table S1): 0.4969
- Sdc1 protein fold change (6 mM vs control, Table S1): 0.244
- Sdcbp protein fold change (6 mM vs control, Table S1): 0.4883
- Serac1 protein fold change (6 mM vs control, Table S1): 2.052
- Sfpq protein fold change (6 mM vs control, Table S1): 2.482
- Sgce protein fold change (6 mM vs control, Table S1): 0.4392
- Slc2a6 protein fold change (6 mM vs control, Table S1): 0.4306
- Slc4a2 protein fold change (6 mM vs control, Table S1): 0.48
- Slc7a1 protein fold change (6 mM vs control, Table S1): 0.4712
- Slc24a5 protein fold change (6 mM vs control, Table S1): 0.4286
- Slc35b2 protein fold change (6 mM vs control, Table S1): 0.3476
- Slc38a2 protein fold change (6 mM vs control, Table S1): 0.3733
- Slc45a2 protein fold change (6 mM vs control, Table S1): 0.451
- Sparcl1 protein fold change (6 mM vs control, Table S1): 0.4926
- Syt4 protein fold change (6 mM vs control, Table S1): 0.3106
- Tagln2 protein fold change (6 mM vs control, Table S1): 0.2815
- Tgoln1 protein fold change (6 mM vs control, Table S1): 0.479
- Tial1 protein fold change (6 mM vs control, Table S1): 2.492
- Tmed1 protein fold change (6 mM vs control, Table S1): 0.4801
- Tmem14c protein fold change (6 mM vs control, Table S1): 4.332
- Tmem59 protein fold change (6 mM vs control, Table S1): 0.233
- Tmem176a protein fold change (6 mM vs control, Table S1): 0.2277
- Tmem176b protein fold change (6 mM vs control, Table S1): 0.171
- Trib3 protein fold change (6 mM vs control, Table S1): 2.531
- Try10 protein fold change (6 mM vs control, Table S1): 0.2906
- Tspan3 protein fold change (6 mM vs control, Table S1): 0.3162
- Tspan10 protein fold change (6 mM vs control, Table S1): 0.3282
- Tubb4a protein fold change (6 mM vs control, Table S1): 3.655
- Tyrp1 protein fold change (6 mM vs control, Table S1): 0.3578
- U2af1l4 protein fold change (6 mM vs control, Table S1): 2.0208
- Ube2j1 protein fold change (6 mM vs control, Table S1): 0.3514
- Ubl3 protein fold change (6 mM vs control, Table S1): 0.2819
- Zbtb3 protein fold change (6 mM vs control, Table S1): 2.269
- env protein fold change (6 mM vs control, Table S1): 0.4886
- il6st protein fold change (6 mM vs control, Table S1): 0.4117
- p53 (Fragment) (A6YM30) protein fold change (6 mM vs control, Table S1): 3.222
- regulation of MMP9 or PPARG (mouse B16-F10 cells, proteomic analysis): did not significantly downregulate
